Results from patent publication US9782398B2, “Pharmaceutical compositions comprising an antipsychotic drug and a VMAT2 inhibitor and uses thereof” (NEUROCRINE BIOSCIENCES, INC., priority 2014, dated 2017).
“Also recorded” adds a separate entry of the source.

Tested on: Male Wistar rats
Assay: Conditioned avoidance response (CAR) test of antipsychotic activity
Type: in vivo, rat
Settings: for ED50: Rattus norvegicus, ip, read-out: ED50 (escape response), dose required to produce 50% of the maximum response; for dose of compound required to produce 8 escapes / dose of compound required to produce 5 escapes: from fitted line
Excerpt: In the CAR paradigm, a rat is trained in a two chamber shuttle box to respond to a conditioned stimulus (auditory) by negative reinforcement. If the animal fails to move to the other chamber upon presentation of an auditory stimulus, a mild foot shock is applied to the side where the rat is located. The rat learns to avoid the mild foot shock by moving to the other chamber upon initiation of the auditory signal, termed a conditioned avoidance response. Crossing to the other chamber during administration of the shock is termed an escape response. If a rat fails to move to the other chamber even upon administration of the foot shock, the rat is considered to have an escape failure.
Rats were trained every day for 3 to 4 weeks. In the training session, rats were placed in the CAR two-way shuttle box and the training period of 20 trials ensued. A trial consisted of a 10-sec presentation of an 80 dB white noise followed by a scrambled 0.6 mA foot shock lasting up to 20 sec. The inter-trial interval ranged from 20-60 sec. The rat learned to avoid shock by moving from one compartment to the other when the conditioned stimulus was presented (a conditioned avoidance response). A rat was deemed sufficiently trained if it avoided the shock when presented with the conditioned stimulus at least 19 times out of the 20 trials.
On test day, trained animals were acclimated in the test room for 30 minutes prior to testing. They were then dosed with compound and placed in the CAR two-way shuttle box. In the test, 20 trials were performed on each rat. In each trial the conditioned stimulus was applied (10-sec presentation of 80 dB white noise), followed by the foot shock (a scrambled 0.6 mA foot shock lasting up to 20 sec). If the animal moved to the other chamber on presentation of the conditioned stimulus, it was scored as a conditioned avoidance response. If it moved upon presentation of the foot shock, it was scored as an escape. […] Antipsychotic efficacy is evident by an increase in the number of escapes. Data were analyzed by analysis of variance (ANOVA) followed by post-hoc comparisons with the Bonferroni Test when appropriate. An effect is considered significant if p<0.05. Outliers defined as two standard deviations above or below the mean were detected and were removed from all analysis. Results are reported as mean±SEM for number of escapes.
Animals: Male Wistar rats from Harlan (Indianapolis, Ind.) were used in the study. Upon receipt, rats were assigned unique identification numbers and were group housed with 3 rats per cage in polycarbonate cages with micro-isolator filter tops. All rats were examined, handled, and weighed prior to initiation of the study to assure adequate health and suitability. The rats were maintained at 12/12 light/dark cycle with lights on at 6:00 A.M. The room temperature was maintained between 20 and 23° C. with a relative humidity maintained around 50%. Chow and water were provided ad libitum for the duration of the study. For each test, animals were randomly assigned across treatment groups. Each treatment group contained 10 animals at time of testing.
Test Compounds: Risperidone (0.03, 0.1, 0.3, and 1 mg/kg) was dissolved in 10% DMSO and administered i.p. 30 min prior to testing at a dose volume of 1 ml/kg. […] The vehicle control group received 10% DMSO (i.p., 30 min pretreatment, 1 ml/kg) immediately followed by administration of sterile water (p.o., 1 ml/kg).
Test Compounds: Olanzapine (0.3, 0.6, 1 and 3 mg/kg) was dissolved in 10% DMSO and administered i.p. 30 min prior to testing at a dose volume of 1 ml/kg.
10% DMSO (i.p., 30 min pretreatment, 1 ml/kg) immediately followed by administration of sterile water (p.o., 1 ml/kg) was used as the vehicle control group.
Test Compounds: Risperidone (0.1, 0.3, and 1 mg/kg) was dissolved in 10% DMSO and administered i.p. 30 min prior to testing at a dose volume of 1 ml/kg.

[1] = combination with Compound 5-1 0.3 mg/kg vs risperidone singly, rat
[2] = combination with R,R,R-DHTBZ 0.15 mg/kg vs risperidone singly, rat
[3] = risperidone i.p. administered singly, rat
[4] = combination with R,R,R-DHTBZ 0.15 mg/kg vs olanzapine singly, rat
[5] = olanzapine i.p. administered singly, rat

Structure (SMILES): COc1cc2c(cc1OC)[C@H]1C[C@@H](CO)[C@H](CC(C)C)CN1CC2 [Compound 5-1, [(2R,3S,11bR)-9,10-Dimethoxy-3-(2-methylpropyl)-1H,2H,3H,4H,6H,7H,11bH-pyrido[2,1-a]isoquinolin-2-yl]methanol]
- number of escapes compared to vehicle (Compound 5-1 0.3 mg/kg p.o. administered singly, 60 min prior to testing, rat, 0.3 mg/kg): did not result in changes from the vehicle results; also recorded: showed no antipsychotic activity; also recorded: did not increase

Structure (SMILES): COc1cc2c(cc1OC)[C@H]1C[C@@H](O)[C@H](CC(C)C)CN1CC2 [R,R,R-DHTBZ, (2R,3R,11bR)-3-isobutyl-9,10-dimethoxy-1,3,4,6,7,11b-hexahydro-2H-pyrido[2,1-a]isoquinolin-2-ol]
- number of escapes compared to vehicle (R,R,R-DHTBZ 0.15 mg/kg p.o. administered singly, 30 min prior to testing, rat): did not increase; also recorded: did not result in changes from the vehicle results
- number of escapes compared to vehicle (R,R,R-DHTBZ 0.15 mg/kg p.o. administered singly, 30 min prior to testing, rat, listed as R,R,R DHTBZ): showed no antipsychotic activity

Structure (SMILES): Cc1nc2n(c(=O)c1CCN1CCC(c3noc4cc(F)ccc34)CC1)CCCC2 [risperidone]
- ED50: 0.14 mg/kg
- decrease of risperidone dose required to produce 8 escapes [1]: approximately 7 fold
- reduction of the risperidone dose [1]: 86%
- decrease of ED50 of risperidone [2]: approximately 6 fold
- reduction of the risperidone dose [2]: 83%
- number of escapes compared to vehicle (risperidone 0.1 mg/kg i.p. administered singly, 30 min prior to testing, rat): did not result in changes from the vehicle results; also recorded: did not increase
- dose necessary to show antipsychotic efficacy in the CAR paradigm [3]: 0.3 mg/kg
- dose of compound required to produce 8 escapes [3]: 0.26 mg/kg
- dose of compound required to produce 8 escapes (risperidone i.p. in combination with Compound 5-1 0.3 mg/kg p.o., rat): 0.038 mg/kg
- doses of risperidone resulting in antipsychotic activity (risperidone i.p. with addition of Compound 5-1 0.3 mg/kg p.o., rat): 0.1 mg/kg

Structure (SMILES): Cc1cc2c(s1)Nc1ccccc1N=C2N1CCN(C)CC1 [olanzapine]
- ED50: 1.2 mg/kg
- reduction of the olanzapine dose (combination with Compound 5-1 0.3 mg/kg vs olanzapine singly, rat): 80%
- decrease of ED50 of olanzapine [4]: approximately 2 fold
- reduction of the olanzapine dose [4]: 50%
- dose necessary to show antipsychotic efficacy in the CAR paradigm [5]: 1 mg/kg
- dose of compound required to produce 5 escapes [5]: 0.93 mg/kg
- dose of compound required to produce 5 escapes (olanzapine i.p. in combination with Compound 5-1 0.3 mg/kg p.o., rat): 0.18 mg/kg
- dose of olanzapine resulting in antipsychotic activity (olanzapine i.p. with addition of Compound 5-1 0.3 mg/kg p.o., rat): 0.6 mg/kg
- dose of olanzapine resulting in antipsychotic activity (olanzapine i.p. with addition of R,R,R-DHTBZ 0.15 mg/kg p.o., rat): 0.6 mg/kg
